SMILES strings stand for the structures. In brackets after ≈: the same amount, converted by molar mass. Bounds are passed on as bounds.

One assay has as its system C. glabrata ATCC 90030. The assay is described as follows: MIC by broth dilution, CG01. The class given is cell-based. Particulars: RPMI 1640 pH 7.0, 48 hours; for MIC50: Nakaseomyces glabratus, ATCC90030, concentration exhibiting more than 50% inhibition vs positive control, read-out: MIC50 obtained by broth dilution method, MIC. How it is done: (§1) The compounds of Formula (1a) and (1b) were tested for antifungal activity against various strains of Candida(CA 01: Candida albicans ATCC 24433, CA 02: C. albicans ATCC 10231, CA 03: C. albicans ATCC 2091, CA 04: C. albicans ATCC 90028, CG 01: C. glabrata ATCC 90030, CK 01: C. Krusei ATCC 6258, CT 01: C. tropicalis ATCC 750). In vitro evaluation of antifungal activity was performed by determining the minimum inhibitory concentration (MIC) following standard broth dilution methods (CLSI: Reference method for broth dilution antifungal susceptibility testing of yeasts; Approved standard, second edition M27-A2, 2002; CLSI: Reference method for broth dilution antifungal susceptibility testing of filamentous fungi; […]. Known anti-fungal agents like Fluconazole and Amphotericin-B were used as standards. End points were determined after 48 hours visually and by using spectrophotometer wherever necessary. The activity parameters are enumerated in Table 10: […]
(Broth dilution looks for growth in wells or tubes with falling amounts of substance.)

A further assay has as its system C. albicans ATCC 2091. Put plainly: MIC by broth dilution, CA03. The class given is cell-based, Candida albicans. The following applies: RPMI 1640 pH 7.0, 48 hours; for MIC50: Candida albicans, ATCC2091, concentration exhibiting more than 50% inhibition vs positive control, read-out: MIC50 obtained by broth dilution method, MIC. How it is done: as §1
The test system of another assay is C. Krusei ATCC 6258. Put plainly: MIC by broth dilution, CK01. The class given is cell-based. Particulars: RPMI 1640 pH 7.0, 48 hours; for MIC50: Pichia kudriavzevii, ATCC6258, concentration exhibiting more than 50% inhibition vs positive control, read-out: MIC50 obtained by broth dilution method, MIC. How it is done: as §1
The subject of the next assay is C. albicans ATCC 90028. Put plainly: MIC by broth dilution, CA04. The following applies: RPMI 1640 pH 7.0, 48 hours; for MIC50: Candida albicans, ATCC90028, concentration exhibiting more than 50% inhibition vs positive control, read-out: MIC50 obtained by broth dilution method, MIC. The format is cell-based, Candida albicans. How it is done: as §1
The test system of the next assay is C. albicans ATCC 10231. Put plainly: MIC by broth dilution, CA02. The class given is cell-based, Candida albicans. The following applies: RPMI 1640 pH 7.0, 48 hours; for MIC50: Candida albicans, ATCC10231, concentration exhibiting more than 50% inhibition vs positive control, read-out: MIC50 obtained by broth dilution method, MIC. On the procedure: as §1
Another assay deals with C. tropicalis ATCC 750. Put plainly: MIC by broth dilution, CT01. The class given is cell-based. Particulars: RPMI 1640 pH 7.0, 48 hours; for MIC50: Candida tropicalis, ATCC750, concentration exhibiting more than 50% inhibition vs positive control, read-out: MIC50 obtained by broth dilution method, MIC. On the procedure: as §1
The subject of assay [1] is Candida albicans ATCC 24433. Put plainly: MIC by broth dilution, CA01. The format is cell-based. Particulars: RPMI 1640 pH 7.0, 48 hours; for MIC50: Candida albicans, ATCC24433, concentration exhibiting more than 50% inhibition vs positive control, read-out: MIC50 obtained by broth dilution method, MIC. How it is done: as §1
The mark [2] stands for this setting: concentration exhibiting complete inhibition.

As usually defined, the MIC50 is an inhibitory concentration at the 50% level, which refers to growth in some studies and to a panel of isolates in others. For `CCCCCCCc1cc2c(=O)n(C[C@](O)(Cn3cncn3)c3ccc(F)cc3F)cnc2s1` [Formula 1b-03, (S)-3-[2-(2,4-Difluorophenyl)-2-hydroxy-3-[1,2,4]triazol-1-yl-propyl]-6-n-heptyl-thieno[2,3-d]pyrimidin-4(3H)-one], the MIC50 in the assay with C. glabrata ATCC 90030 came to 0.25 µg/mL; in the assay on C. albicans ATCC 2091 it was 0.5 µg/mL; in the assay with C. Krusei ATCC 6258 it was 1 µg/mL; in the assay with C. albicans ATCC 90028, 0.25 µg/mL; in the assay on C. albicans ATCC 10231, 0.5 µg/mL; in the assay on C. tropicalis ATCC 750, 1 µg/mL. Besides, the MIC50 in assay [1] stood at 0.12 µg/mL.
In the case of `C[C@@H]1[C@H](O)[C@@H](C)/C=C/C=C/C=C/C=C/C=C/C=C/C=C/[C@H](O[C@@H]2O[C@H](C)[C@@H](O)[C@H](N)[C@@H]2O)C[C@@H]2O[C@](O)(C[C@@H](O)C[C@@H](O)[C@H](O)CC[C@@H](O)C[C@@H](O)CC(=O)O[C@H]1C)C[C@H](O)[C@H]2C(=O)O` [AMB, Amphotericin-B, reference compound], the “MIC in μg/ml (Amphotericin B)” value was determined as 0.25 µg/mL (≈ 0.271 µM) against C. glabrata ATCC 90030 (setting [2]); 0.5 µg/mL (≈ 0.541 µM) against C. albicans ATCC 2091 (setting [2]); 0.5 µg/mL (≈ 0.541 µM) against C. Krusei ATCC 6258 (setting [2]); 0.5 µg/mL (≈ 0.541 µM) against C. albicans ATCC 90028 (setting [2]); 0.5 µg/mL (≈ 0.541 µM) with C. albicans ATCC 10231 (setting [2]); 0.5 µg/mL (≈ 0.541 µM) against C. tropicalis ATCC 750 (setting [2]). Further, the “MIC in μg/ml (Amphotericin B)” value in assay [1] (setting [2]) stood at 0.25 µg/mL (≈ 0.271 µM).
Turning to `CCCc1cc2c(=O)n(C[C@](O)(Cn3cncn3)c3ccc(F)cc3F)cnc2s1` [Formula 1b-04, (S)-3-[2-(2,4-Difluorophenyl)-2-hydroxy-3-[1,2,4]triazol-1-yl-propyl]-6-(n-propyl)-thieno[2,3-d]pyrimidin-4(3H)-one], the MIC50 was found to be 0.03 µg/mL with C. glabrata ATCC 90030; 0.03 µg/mL with C. albicans ATCC 2091; 1 µg/mL in the assay with C. Krusei ATCC 6258; 0.03 µg/mL in the assay with C. albicans ATCC 90028; 0.06 µg/mL in the assay on C. albicans ATCC 10231; 0.06 µg/mL with C. tropicalis ATCC 750. In addition, the MIC50 in assay [1] turned out to be 0.03 µg/mL.
Consider `OC(Cn1cncn1)(Cn1cncn1)c1ccc(F)cc1F` [FLU, Fluconazole], for which the MIC50 is 4 µg/mL (≈ 13.1 µM) with C. glabrata ATCC 90030; 0.5 µg/mL (≈ 1.63 µM) in the assay on C. albicans ATCC 2091; 64 µg/mL (≈ 209 µM) with C. Krusei ATCC 6258; 0.5 µg/mL (≈ 1.63 µM) in the assay on C. albicans ATCC 90028; 1 µg/mL (≈ 3.27 µM) in the assay on C. albicans ATCC 10231; 2 µg/mL (≈ 6.53 µM) in the assay with C. tropicalis ATCC 750. The MIC50 in assay [1] amounted to 1 µg/mL (≈ 3.27 µM).
For `CCCCCc1cc2c(=O)n(C[C@](O)(Cn3cncn3)c3ccc(F)cc3F)cnc2s1` [Formula 1b-02, (S)-3-[2-(2,4-difluorophenyl)-2-hydroxy-3-(1H-1,2,4-triazol-1-yl)propyl]-6-n-pentylthieno[2,3-d]pyrimidin-4(3H)-one], the MIC50 stood at 0.06 µg/mL in the assay with C. glabrata ATCC 90030; 0.12 µg/mL in the assay on C. albicans ATCC 2091; 1 µg/mL in the assay with C. Krusei ATCC 6258; 0.03 µg/mL with C. albicans ATCC 90028; 0.12 µg/mL with C. albicans ATCC 10231; 0.06 µg/mL with C. tropicalis ATCC 750. The MIC50 in assay [1] is 0.03 µg/mL.
Consider `CCCCCCc1cc2c(=O)n(C[C@](O)(Cn3cncn3)c3ccc(F)cc3F)cnc2s1` [Formula 1b-01, (S)-3-[2-(2,4-Difluorophenyl)-2-hydroxy-3-[1,2,4]triazol-1-yl-propyl]-6-(n-hexyl)-thieno[2,3-d]pyrimidin-4(3H)-one], for which the MIC50 with C. glabrata ATCC 90030 came to 0.12 µg/mL; in the assay on C. albicans ATCC 2091, 0.25 µg/mL; in the assay on C. Krusei ATCC 6258, 1 µg/mL; with C. albicans ATCC 90028, 0.12 µg/mL; in the assay on C. albicans ATCC 10231 it was 0.12 µg/mL; in the assay on C. tropicalis ATCC 750, 0.25 µg/mL. In assay [1], the MIC50 was found to be 0.06 µg/mL.
For the compound `CCCCCc1cc2c(=O)n(C[C@@](O)(Cn3cncn3)c3ccc(F)cc3F)cnc2s1` [Formula 1a-02, (R)-3-[2-(2,4-difluorophenyl)-2-hydroxy-3-(1H-1,2,4-triazol-1-yl)propyl]-6-n-pentylthieno[2,3-d]pyrimidin-4(3H)-one], the MIC50 with C. glabrata ATCC 90030 was 4 µg/mL; with C. albicans ATCC 2091, 8 µg/mL; in the assay with C. Krusei ATCC 6258 it was > 16 µg/mL; with C. albicans ATCC 90028, 4 µg/mL; with C. albicans ATCC 10231, 8 µg/mL; in the assay with C. tropicalis ATCC 750, 16 µg/mL. For the same compound, in assay [1], the MIC50 was 4 µg/mL.

The values are drawn from patent US9181269B2, “Enantiomers of fluconazole analogues containing thieno-[2,-3-D]pyrimidin-4(3H)-one moiety as antifungal agents” (FDC Limited, priority 2011, dated 2015).
